The subject of one data set is Human Hepatocyte. Briefly: Metabolic stability in hepatocytes (human). Format: in vitro ADME. The following applies: 1 μM test compound, cryopreserved human hepatocytes. The procedure: 4.6. Metabolic Stability in Hepatocytes
The aim of this assay is to determine the metabolic stability of the compound in hepatocytes (cryopreserved) of different species. Low hepatocyte stability may result in the formation of unwanted metabolites, high clearance, and therefore is not desirable.
The decrease in parent was assessed by measuring the percentage remaining by LC-MS/MS analysis.
A 10 mM stock solution of test compound in DMSO was first diluted in DMSO to 3 mM, and then in modified Krebs-Henseleit buffer (Sigma, K3753) to 5 μM. This compound dilution was added to a suspension of pooled cryopreserved hepatocytes (BioreclamationIVT) at 37° C. under gentle shaking.
Final reaction conditions were: 1 μM of test compound, 0.03% DMSO, 0.5 million viable hepatocytes/mL, and 75 μL incubation volume.
Testosterone (1 μM) and 7-hydroxycoumarin (1 μM) were used, respectively as phase I and phase II metabolic reaction controls.
After 0, 10, 20, 45, 90, 120 and 180 min of incubation, the reaction was terminated with 225 μL of MeCN:MeOH (2:1) containing 100 ng/mL of diclofenac as analytical internal standard. Samples were mixed, centrifuged and the supernatant analyzed by LC-MS/MS.
The instrument responses (ratios of test compound and internal standard peak areas) were referenced to the zero time point samples (considered as 100%) in order to determine the percentage of compound remaining.
Plots of percentage compound remaining were used to determine the intrinsic clearance in the hepatocyte incubations using the following equations:
Scaled Clint [L/h/kg]=Clint[μL/min/10^6 cells]*#(10^6) cells/g liver*60*( 1/10^6) Scaled Clint unbound [L/h/kg]=Clint [L/h/kg]/Fu,inc where: fu,inc equals hepatocyte binding, derived from microsomal binding (fu,mic) by following equation: […]

Data set [1] relates to CL097 triggered IFNα release in human whole blood. Briefly: Ex vivo human IFNα release inhibition (human whole blood assay). The following applies: Homo sapiens, CL097 2 μg/mL, 3 h 30 min at 37° C. Format: cell-based. The text has this: 4.10.1. Ex Vivo Human IFNα and TNFα Release Inhibition (Human Whole Blood Assay)
The aim of the assay is to evaluate the activity of compounds of the invention on the activated TLR/IRAK-4 pathway in an ex vivo human whole blood setting. Toll-like receptors (TLRs) are pattern recognition receptors that recognize a wide variety of microbial molecules, called pathogen-associated molecular patterns (PAMPs). Human TLR7 and TLR8 recognize imidazoquinoline compounds (e.g., CL097—CAS n #1026249-18-2) and single stranded RNAs as their natural ligands. Activation of TLRs leads to the production of several cytokines (e.g., IFNα, TNFα, IL-8, IL-6) by the TLR agonist-treated cells, whereas IRAK4 leads to the production of IFNα. Cytokine release is used as readout in this assay and represents a measure for the level of inhibition of the TLR/IRAK-4 pathway by the tested compound. It should be noted that in the context of the complete organism, other sources for these cytokines exist that are not dependent on the TLR/IRAK-4 pathway, such as e.g., macrophages (upon activation of the Fcγ receptor (Yan et al., 2012)) or T cells (upon activation of the T cell receptor (Brehm et al., 2005)).
4.10.1.1. Experimental Design
Blood was collected from healthy volunteers into lithium heparin tubes by venipuncture, then gently inverted several times to prevent clotting and incubated for at least 15 min at 37° C. on a rocking mixer shaker. Then, 100 μL of blood was dispensed into polypropylene 96-well microplate and pre-incubated in duplicate with 0.3% DMSO or test compound at different concentrations (from 30 to 0.01 μM, 3-fold dilutions to get 0.3% DMSO at the final) for 15 min at 37° C. After this pre-incubation, blood was triggered with CL097 (2 μg/mL from 1 mg/mL solution in water; InvivoGen, tlrl-c97) for 3 h 30 min at 37° C. Microtubes were centrifuged at 5000×g for 10 min at 4° C. and approximately 40 μL of plasma were collected into a polystyrene 96-well plate. Plasma could be analyzed freshly, within 30 min after triggering, or frozen at −80° C. Finally, the quantification of TNFα and IFNα were performed in the plasma using AlphaLISA Kit for TNFα and IFNα according to the manufacturer's instructions and read on the Ensight (PerkinElmer).
A standard curve was created by plotting on log-log the mean […] on the y-axis against the concentration on the x-axis and a 4-parameters logistic regression (4PL) was made through the points. For each blood sample, the IFNα concentrations of the samples were determined from the fit. Data were then expressed as a percentage of inhibition (PIN) for each replicate using the formula:
With mean IFNα with CL097=mean IFNα concentration of replicate samples triggered with CL097; IFNαsample1=IFNα concentration of sample 1; mean IFNα with vehicle=mean IFNα concentration of replicate samples treated with vehicle.
Curve fitting for pIC50 determination were generated using mean PIN±sem. Graphs and pIC50 calculations were derived using Prism 5.03 software (GraphPad).

As for `COc1cn2nc(CCC(C)(C)O)cc2cc1NC(=O)c1cccn(C2CCC2)c1=O` [Compound 21, 1-cyclobutyl-N-[2-(3-hydroxy-3-methyl-butyl)-6-methoxy-pyrazolo[1,5-a]pyridin-5-yl]-2-oxo-pyridine-3-carboxamide], in the data set with Human Hepatocyte, the “Human Hepatocyte stability (Perc. remaining at 90 min)” value is reported as 92.15 Perc. Besides, in data set [1], the IC50 is 1000 to 5000 nM.
With `COc1cn2nc(CC(F)C(C)(C)O)cc2cc1NC(=O)c1cccn(C2CC2)c1=O` (centres unmarked) [Compound 22, 1-cyclopropyl-N-[2-(2-fluoro-3-hydroxy-3-methyl-butyl)-6-methoxy-pyrazolo[1,5-a]pyridin-5-yl]-2-oxo-pyridine-3-carboxamide], the “Human Hepatocyte stability (Perc. remaining at 90 min)” value in the data set with Human Hepatocyte turned out to be 100.05 Perc. The compound also displayed an IC50 in data set [1] of 500 to 1000 nM.
On the same counts, the results for `[2H]C([2H])([2H])C(O)(CCc1cc2cc(NC(=O)c3cccn(C4CC4)c3=O)c(OC)cn2n1)C([2H])([2H])[2H]` [Compound 23, 1-cyclopropyl-N-[6-methoxy-2-[4,4,4-trideuterio-3-hydroxy-3-(trideuteriomethyl)butyl]pyrazolo[1,5-a]pyridin-5-yl]-2-oxo-pyridine-3-carboxamide] are 101.45 Perc and 500 to 1000 nM.
On the same counts, the results for `[2H]C([2H])([2H])Oc1cn2nc(CCC(C)(C)O)cc2cc1NC(=O)c1cccn(C2CC2)c1=O` [Compound 24, 1-cyclopropyl-N-[2-(3-hydroxy-3-methylbutyl)-6-(trideuteriomethoxy)pyrazolo[1,5-a]pyridin-5-yl]-2-oxopyridine-3-carboxamide] are 105 Perc and 0.1 to 500 nM.

Broadly, the IC50 is the concentration that gives 50% inhibition.
